Experimental data as given in paper PMC9456400 (International Journal of Molecular Sciences, 2022).

Test system: Huh-7 cells
Experiment: UHPLC-ESI-QTOF-MS/MS lipidomics
Format: cell-based, human
Excerpt: We then questioned whether lorlatinib used at concentrations efficacious against ALK-rearranged lung cancer cells but non-toxic to ALK-negative cells could promote substantial lipidome changes in Huh-7 cells (Figure 1B; Table 1). Accordingly, […], and the lipidome was characterized in a semi-targeted approach using a UHPLC-ESI-QTOF-MS/MS method, in which we matched mass spectra with commercial standards (SPLAH mix), databases such as METLIN-PCDL and Lipid MAPS (accessed on 1 July 2022), as well as corroboration of tentative lipid species upon obtaining their MS/MS spectrum. Representative chromatograms of lipidomic analyses in Huh-7 cells can be found in Figure S1.
Lipid extraction, preparation of external calibration curves, and quality control approaches were carried out as described. Samples (2 μL) were injected directly into a 1290 Infinity UHPLC system coupled with a dual Agilent jet stream ESI source to a 6550 QTOF-MS instrument (Agilent Technologies, Santa Clara, CA, USA). UHPLC-ESI-QTOF-MS conditions, data analysis and indirect quantification of selected lipid species using MassHunter Qualitative Analysis B.07.00 software (Agilent Technologies), and corroboration of the tentative characterization of compound match entities using the Lipid Maps database (www.lipidmaps.org, accessed on 1 July 2022) and targeted MS/MS acquisition on LC-QTOF-MS instrument, have been previously described in detail.
Differentially expressed lipid species from untargeted lipidomic data were analyzed by generating volcano plots indicating statistical significance versus magnitude of fold-change for each lipid species (cutoff of Benjamini–Hochberg corrected p-value < 0.05 and log2 fold-change > 1 or […]).

[1] = Huh-7 cells, SBN 100 µmol/L, lorlatinib 1 µmol/L, median

C[C@H]1Oc2cc(cnc2N)-c2c(nn(C)c2C#N)CN(C)C(=O)c2ccc(F)cc21 [lorlatinib, (10R)-7-amino-12-fluoro-2,10,16-trimethyl-15-oxo-10,15,16,17-tetrahydro-2H-8,4-(metheno)pyrazolo [4,3-h][2,5,11]-benzoxadiazacyclotetradecine-3-carbonitrile]
Change of lipid species, single agent (Huh-7, 48 h, lorlatinib 1 μmol/L, silibinin 100 μmol/L): significantly increase several species of ChoE, numerous molecular species of long-chain TG, and several DG, LPC, and PC species
Relative concentration of ChoE 16:0 [1]: 11.335 µmol/mg protein
Relative concentration of ChoE 16:1 [1]: 25.820 µmol/mg protein
Relative concentration of ChoE 17:0 [1]: 2.170 µmol/mg protein
Relative concentration of ChoE 17:1 [1]: 5.670 µmol/mg protein
Relative concentration of ChoE 18:0 [1]: 4.365 µmol/mg protein
Relative concentration of ChoE 18:2 [1]: 33.284 µmol/mg protein
Relative concentration of ChoE 18:3 [1]: 12.818 µmol/mg protein
Relative concentration of ChoE 20:2 [1]: 6.459 µmol/mg protein
Relative concentration of ChoE 20:3 [1]: 42.167 µmol/mg protein
Relative concentration of ChoE 20:4 [1]: 107.967 µmol/mg protein
Relative concentration of ChoE 20:5 [1]: 68.788 µmol/mg protein
Relative concentration of ChoE 22:4 [1]: 27.538 µmol/mg protein
Relative concentration of ChoE 22:5 [1]: 59.058 µmol/mg protein
Relative concentration of DG 34:1 [1]: 16.654 µmol/mg protein
Relative concentration of DG 34:2 [1]: 17.722 µmol/mg protein
Relative concentration of DG 34:3 [1]: 2.474 µmol/mg protein
Relative concentration of DG 36:0 [1]: 2.250 µmol/mg protein
Relative concentration of DG 36:1 [1]: 8.885 µmol/mg protein
Relative concentration of DG 36:2 [1]: 20.022 µmol/mg protein
Relative concentration of DG 36:3 [1]: 2.186 µmol/mg protein
Relative concentration of DG 36:4 [1]: 4.172 µmol/mg protein
Relative concentration of DG 40:4 [1]: 9.158 µmol/mg protein
Relative concentration of LPC 15:0 [1]: 0.094 µmol/mg protein
Relative concentration of LPC 16:0 [1]: 3.165 µmol/mg protein
Relative concentration of LPC 16: e [1]: 0.023 µmol/mg protein
Relative concentration of LPC 18:0 [1]: 1.911 µmol/mg protein
Relative concentration of LPC 18:0e [1]: 0.014 µmol/mg protein
Relative concentration of LPC 18:1 [1]: 1.630 µmol/mg protein
Relative concentration of LPC 18:2 [1]: 0.188 µmol/mg protein
Relative concentration of LPC 20:0 [1]: 0.047 µmol/mg protein
Relative concentration of LPC 20:3 [1]: 0.080 µmol/mg protein
Relative concentration of PC 30:0 [1]: 6.654 µmol/mg protein
Relative concentration of PC 31:0 [1]: 3.243 µmol/mg protein
Relative concentration of PC 32:0 [1]: 20.672 µmol/mg protein
Relative concentration of PC 32:1 [1]: 56.675 µmol/mg protein
Relative concentration of PC 32:1e [1]: 0.780 µmol/mg protein
Relative concentration of PC 32:2 [1]: 7.800 µmol/mg protein
Relative concentration of PC 33:0 [1]: 3.109 µmol/mg protein
Relative concentration of PC 33:1 [1]: 12.338 µmol/mg protein
Relative concentration of PC 33:2 [1]: 1.113 µmol/mg protein
Relative concentration of PC 34:0 [1]: 5.917 µmol/mg protein
Relative concentration of PC 34:1 [1]: 93.696 µmol/mg protein
Relative concentration of PC 34:1e [1]: 0.856 µmol/mg protein
Relative concentration of PC 34:2 [1]: 49.219 µmol/mg protein
Relative concentration of PC 34:2e [1]: 0.709 µmol/mg protein
Relative concentration of PC 34:3 [1]: 5.578 µmol/mg protein
Relative concentration of PC 34:4 [1]: 0.930 µmol/mg protein
Relative concentration of PC 35:1 [1]: 6.392 µmol/mg protein
Relative concentration of PC 35:2 [1]: 6.219 µmol/mg protein
Relative concentration of PC 35:4 [1]: 1.817 µmol/mg protein
Relative concentration of PC 36:0 [1]: 0.209 µmol/mg protein
Relative concentration of PC 36:1 [1]: 24.222 µmol/mg protein
Relative concentration of PC 36:2 [1]: 46.840 µmol/mg protein
Relative concentration of PC 36:2e [1]: 0.101 µmol/mg protein
Relative concentration of PC 36:3 [1]: 20.945 µmol/mg protein
Relative concentration of PC 36:4 [1]: 26.422 µmol/mg protein
Relative concentration of PC 36:5 [1]: 6.790 µmol/mg protein
Relative concentration of PC 36:5e [1]: 0.749 µmol/mg protein
Relative concentration of PC 38:2 [1]: 1.747 µmol/mg protein
Relative concentration of PC 38:3 [1]: 2.875 µmol/mg protein
Relative concentration of PC 38:4 [1]: 12.355 µmol/mg protein
Relative concentration of PC 38:5 [1]: 12.838 µmol/mg protein
Relative concentration of PC 38:5e [1]: 0.193 µmol/mg protein
Relative concentration of PC 38:6 [1]: 9.312 µmol/mg protein
